Consider seven compounds from ChEMBL document CHEMBL1201862, “PubChem BioAssay data set” (2004).

Some test systems named below: A498; CCRF-CEM; COLO 205; EKVX; HCT-116; HL-60; HOP-62; HT-29; KM12; LOX IMVI; NCI-H460; NCI-H522; RPMI-8226; RXF 393; SF-268; SK-MEL-5; SN12C; SR; UACC-257; UO-31.
What all share (assay): NCI-60 cell line screen, 48 h

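Where inhibition never reached the appropriate level, the endpoint shown equals the highest concentration tested. Otherwise, values were interpolated linearly from a five-concentration, 48-hour dose response in 96-well plates. GI50 marks 50% less growth.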 Activity calls are given as the source filed them. No stated cut-off is given here; in the data, active = GI50 up to about 1.1 µM and inactive = higher.

Take `CCOC(=O)c1nc2ccc(C(F)(F)F)cc2nc1Nc1ccc(Cl)c(Cl)c1`: the GI50 is > 100 µM (inactive) with A498; 86.1 µM (inactive) with CCRF-CEM; > 100 µM (inactive) in the assay on COLO 205; > 100 µM (inactive) in the assay on EKVX; 64.7 µM (inactive) in the assay on HCT-116; 95.7 µM (inactive) in the assay with HL-60. In addition, the GI50 in the assay on HOP-62 is 27.5 µM (inactive); in the assay on HT-29 it was > 100 µM (inactive); with KM12, 75.9 µM (inactive); with LOX IMVI it was > 100 µM (inactive); with NCI-H460 it was > 100 µM (inactive); in the assay on NCI-H522, > 100 µM (inactive). For the same compound, the GI50 was > 100 µM (inactive) in the assay on RPMI-8226; > 100 µM (inactive) in the assay with RXF 393; > 100 µM (inactive) in the assay on SF-268; > 100 µM (inactive) in the assay on SK-MEL-5; > 100 µM (inactive) with SN12C; 75.3 µM (inactive) in the assay on SR. Moreover, the GI50 in the assay on UACC-257 and with UO-31 was > 100 µM (inactive) throughout.
With `N[C@H]1C2C3CC4C5CC(C42)C1(c1ccccc1)C53` (stereo not given in full), the GI50 in the assay with A498 was > 100 µM (inactive); in the assay with CCRF-CEM, > 100 µM (inactive); with COLO 205 it was 81.3 µM (inactive); in the assay with EKVX, > 100 µM (inactive); with HCT-116 it was > 100 µM (inactive); with HL-60 it was > 100 µM (inactive). Besides, the GI50 in the assay on HOP-62 is > 100 µM (inactive); in the assay on HT-29, 62.5 µM (inactive); in the assay on KM12, > 100 µM (inactive); in the assay with LOX IMVI, > 100 µM (inactive); in the assay on NCI-H460, > 100 µM (inactive); in the assay with NCI-H522, > 100 µM (inactive). Also, the GI50 in the assay with RPMI-8226 is > 100 µM (inactive); in the assay with RXF 393 it was 45.1 µM (inactive); in the assay with SF-268, > 100 µM (inactive); in the assay on SK-MEL-5, > 100 µM (inactive); in the assay with SN12C, > 100 µM (inactive); with SR it was > 100 µM (inactive). Also, the GI50 in the assay on UACC-257 was > 10 µM (inactive); in the assay on UO-31, > 100 µM (inactive).
For `N=C(N)NCCCS(=O)(=O)Nc1ccc(Nc2c3ccccc3nc3cc([N+](=O)[O-])ccc23)cc1`, the GI50 is 17.5 µM (inactive) with A498; 12.6 µM (inactive) in the assay with CCRF-CEM; 14.5 µM (inactive) in the assay on COLO 205; 15.7 µM (inactive) in the assay with EKVX; 16.5 µM (inactive) in the assay on HCT-116; 22.3 µM (inactive) in the assay with HL-60. The GI50 with HOP-62 is 14.5 µM (inactive); in the assay on HT-29 it was 16.9 µM (inactive); with KM12, 10.2 µM (inactive); with LOX IMVI it was 16.4 µM (inactive); in the assay on NCI-H460, 0.265 µM (active); in the assay on NCI-H522, 7.06 µM (inactive). Moreover, the GI50 in the assay with RPMI-8226 was 3.8 µM (inactive); in the assay with RXF 393, 20.8 µM (inactive); in the assay with SF-268 it was 6.19 µM (inactive); with SK-MEL-5 it was 5.55 µM (inactive); in the assay with SN12C, 4.83 µM (inactive); in the assay on SR it was 5.42 µM (inactive). Further, the GI50 in the assay with UACC-257 is 22.5 µM (inactive); in the assay on UO-31 it was > 68.4 µM (inactive).
`COc1cccc2c1C(=O)c1c(O)c3c(c(O)c1C2=O)C[C@@](O)(C(=O)CO)C[C@@H]3OC1CC(N)C(OC)C(C)O1` (stereo not given in full): the GI50 with A498 was 0.116 µM (active); in the assay with CCRF-CEM, < 0.0146 µM (active); in the assay on COLO 205 it was 0.209 µM (active); with EKVX, 0.522 µM (active); with HCT-116 it was 0.0282 µM (active); in the assay on HL-60, < 0.0163 µM (active). Further, the GI50 in the assay on HOP-62 is 0.0234 µM (active); with HT-29, 0.0559 µM (active); in the assay with KM12, 0.0968 µM (active); in the assay with LOX IMVI, 0.0228 µM (active); in the assay with NCI-H460, < 0.01 µM (active); with NCI-H522, 0.076 µM (active). Further, the GI50 in the assay on RPMI-8226 is 0.024 µM (active); with RXF 393, 0.19 µM (active); in the assay with SF-268 it was 0.0726 µM (active); in the assay on SK-MEL-5 it was 0.0362 µM (active); with SN12C it was 0.0378 µM (active); in the assay on SR, < 0.0157 µM (active). Besides, the GI50 in the assay with UACC-257 is 0.282 µM (active); in the assay with UO-31, 0.437 µM (active).
As for `O=P12N(CCN1c1ccccc1)CCN2c1ccccc1`, the GI50 in the assay on A498, in the assay with CCRF-CEM, in the assay on COLO 205, with EKVX, in the assay with HCT-116 and with HL-60 was > 100 µM (inactive) each time. For the same compound, the GI50 in the assay with HOP-62 is > 100 µM (inactive); in the assay on HT-29, > 100 µM (inactive); in the assay on KM12, > 100 µM (inactive); in the assay on LOX IMVI, > 100 µM (inactive); in the assay with NCI-H460 it was > 100 µM (inactive); in the assay on NCI-H522 it was 84.1 µM (inactive). Besides, the GI50 with RPMI-8226, in the assay with RXF 393, with SF-268, in the assay with SK-MEL-5, in the assay on SN12C and in the assay with SR was > 100 µM (inactive) in each case. The GI50 in the assay with UACC-257 and in the assay with UO-31 was > 100 µM (inactive) in each case.
`O=C(NCCc1ccc(F)cc1)c1cc(/C=C/c2cc(O)ccc2O)ccc1O`: the GI50 was 4.06 µM (inactive) in the assay on A498; 1.61 µM (inactive) with CCRF-CEM; 3.14 µM (inactive) in the assay on COLO 205; 2.42 µM (inactive) in the assay with EKVX; 1.95 µM (inactive) with HCT-116; 2.38 µM (inactive) in the assay on HL-60. Moreover, the GI50 is 6.11 µM (inactive) with HOP-62; 14.4 µM (inactive) with HT-29; 6.05 µM (inactive) in the assay with KM12; 3.38 µM (inactive) with LOX IMVI; 9.75 µM (inactive) in the assay on NCI-H460; 1.52 µM (inactive) in the assay on NCI-H522. Moreover, the GI50 with RPMI-8226 was 3.01 µM (inactive); in the assay on RXF 393, 2.03 µM (inactive); with SF-268, 3.47 µM (inactive); with SK-MEL-5 it was 2.4 µM (inactive); in the assay with SN12C, 5.51 µM (inactive); with SR, 2.96 µM (inactive). The GI50 with UACC-257 was 2.41 µM (inactive); in the assay with UO-31, 1.66 µM (inactive).
For the compound `CC1=NN(c2nc(N)nc(/C(C#N)=C\c3ccc(-c4ccc([N+](=O)[O-])cc4)o3)n2)C(C)(C)C1`, the GI50 in the assay with A498 was > 100 µM (inactive); in the assay with CCRF-CEM, 0.807 µM (active); in the assay with COLO 205 it was > 100 µM (inactive); in the assay on EKVX, > 100 µM (inactive); with HCT-116, > 100 µM (inactive); in the assay on HL-60 it was 17.1 µM (inactive). The GI50 was 1.78 µM (inactive) in the assay on HOP-62; > 100 µM (inactive) in the assay on HT-29; > 100 µM (inactive) in the assay on KM12; > 100 µM (inactive) in the assay on LOX IMVI; > 100 µM (inactive) in the assay on NCI-H460; > 100 µM (inactive) in the assay on NCI-H522. The GI50 in the assay on RPMI-8226 is > 100 µM (inactive); with RXF 393, > 100 µM (inactive); in the assay on SF-268, 65.5 µM (inactive); with SK-MEL-5, > 100 µM (inactive); in the assay with SN12C, > 100 µM (inactive); in the assay with SR it was 11.1 µM (inactive). In addition, the GI50 in the assay on UACC-257 and in the assay on UO-31 was > 100 µM (inactive) in each case.
